Assay results from BindingDB's records for doi:10.1111/cbdd.12457 (Universiti Kebangsaan Malaysia, Jalan Raja Muda Abdul Aziz, 2015).
Blank lines part the entries; values can stand above or below the compound they belong to.

Experiments:
[1] = molecular target: T1, Prostaglandin G/H synthase 1 (Ovis aries, UniProt P05979); experiment: Cyclooxygenase Assay; conditions: pH 8; 25 °C
T1 sequence (P05979 whole entry): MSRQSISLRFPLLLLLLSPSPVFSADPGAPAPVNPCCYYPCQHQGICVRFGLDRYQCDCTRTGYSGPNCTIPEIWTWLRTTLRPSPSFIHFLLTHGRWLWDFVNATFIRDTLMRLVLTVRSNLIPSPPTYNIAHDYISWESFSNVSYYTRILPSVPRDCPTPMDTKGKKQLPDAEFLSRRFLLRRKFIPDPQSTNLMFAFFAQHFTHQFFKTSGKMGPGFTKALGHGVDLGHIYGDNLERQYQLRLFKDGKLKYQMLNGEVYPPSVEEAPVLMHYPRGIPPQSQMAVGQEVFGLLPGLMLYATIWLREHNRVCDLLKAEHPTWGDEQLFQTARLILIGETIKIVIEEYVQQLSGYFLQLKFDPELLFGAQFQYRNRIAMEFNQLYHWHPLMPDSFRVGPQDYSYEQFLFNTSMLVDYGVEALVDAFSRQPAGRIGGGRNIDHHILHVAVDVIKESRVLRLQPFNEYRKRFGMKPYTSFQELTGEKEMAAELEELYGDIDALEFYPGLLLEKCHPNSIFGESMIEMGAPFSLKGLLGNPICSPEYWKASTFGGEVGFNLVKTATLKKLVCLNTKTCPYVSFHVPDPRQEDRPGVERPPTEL
Description: (§1) 100 mM Tris HCl buffer, pH 8.0 containing 1 µM heme and COX-1 (ovine) or COX-2(human recombinant), which was preincubated for 10 min in a water bath at 37 °C was used for reaction mixture preparation. Addition of 10 µL arachidonic acid to the reaction mixture (final concentration 100 µM) was used to initiate reaction. After 2 min reaction was stopped by addition of 1 M HCl. PGE2 in the reaction mixture was determined using ELISA method. 100 mM potassium phosphate buffer (pH 7.4) was used to dilute the DMSO stock solutions of the test compounds to the desired concentration. This reaction mixture was transferred to a 96-well platethat was precoated with a mouse anti-rabbit IgG. Tracer prostaglandin acetylcholine esterase and primary antibody (mouse anti PGE2) were also added to the plates followed by overnight incubation at room temperature. After overnightincubation, reaction mixtures were pipetted out and the wells were washed with 10 mM potassium phosphate buffer containing 0.05% Twe

[2] = molecular target: T2, Prostaglandin G/H synthase 2 (Homo sapiens, UniProt P35354); experiment: Cyclooxygenase Assay; conditions: pH 8; 25 °C
T2 sequence (P35354 whole entry): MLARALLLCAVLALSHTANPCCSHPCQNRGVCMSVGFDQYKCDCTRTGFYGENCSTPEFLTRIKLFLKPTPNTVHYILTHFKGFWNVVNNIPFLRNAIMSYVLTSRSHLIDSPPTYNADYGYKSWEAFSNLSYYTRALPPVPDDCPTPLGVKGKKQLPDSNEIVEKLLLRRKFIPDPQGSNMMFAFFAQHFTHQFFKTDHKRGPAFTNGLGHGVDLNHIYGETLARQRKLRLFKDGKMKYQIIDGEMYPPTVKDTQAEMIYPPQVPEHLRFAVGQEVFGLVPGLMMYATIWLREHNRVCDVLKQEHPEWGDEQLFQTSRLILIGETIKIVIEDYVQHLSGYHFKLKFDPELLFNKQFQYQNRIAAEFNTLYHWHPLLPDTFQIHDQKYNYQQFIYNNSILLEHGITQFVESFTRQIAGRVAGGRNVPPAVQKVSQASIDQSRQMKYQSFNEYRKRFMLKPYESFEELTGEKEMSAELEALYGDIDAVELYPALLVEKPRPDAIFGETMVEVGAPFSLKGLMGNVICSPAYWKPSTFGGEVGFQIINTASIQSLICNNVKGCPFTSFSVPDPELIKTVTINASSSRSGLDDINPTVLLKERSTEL
Description: as §1

[3] = molecular target: T3, Phospholipase A2 group V (Homo sapiens, UniProt P39877); experiment: sPLA2V Activity Assay; conditions: pH 7.5; 25 °C
T3 sequence (P39877 whole entry): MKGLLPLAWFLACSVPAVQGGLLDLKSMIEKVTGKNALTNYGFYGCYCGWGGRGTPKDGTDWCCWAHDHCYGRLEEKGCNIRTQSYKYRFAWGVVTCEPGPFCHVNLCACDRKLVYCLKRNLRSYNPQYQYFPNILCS
Description: Briefly, sn-2ester bond of the substrate 1,2-bis(heptanoylthio)-glycerophosphocholine was hydrolyzed by PLA2-V followed by the exposure of free thiols. These thiols activated the conversion of DTNB (5,5–dithio-bis-(2-nitrobenzoic acid) to 2-nitro-5-thiobenzoic acid, which was photometrically detected at 405 nm. After this, the assay proceeded in an aqueous buffer solution (pH 7.5) containing KCl (94 mM), CaCl2 (9 mM), Tris (24 mM), and Triton-X 100 ([…]). Before the assay was started, substrate and PLA2-V was resuspended in assay buffer whereas DTNB was dissolved in an aqueous solution of Tris-HCl (pH 8) yielding an enzyme and DTNB concentrations of 100 ng/mL and 87 BM, respectively. 96-well micro titre plates containing substrate solution, DTNB, and the respective test substance were used to carry out assays at room temperature.

Structure (SMILES): CN(C)c1ccc(/C=C/C(=O)c2ccc3c(c2)OCCO3)c2ccccc12 [1-(2,3-Dihydro-benzo[1,4]dioxin-6-yl)-3-(4-dimethylamino-naphthalen-1-yl)-propenone (4)]
IC50 [1]: 7.06 µM | IC50 [2]: 24.5 µM | IC50 [3]: 32.2 µM

Structure (SMILES): COc1cc2ccccc2c(/C=C/C(=O)c2cc3ccccc3o2)c1OC [1-Benzofuran-2-yl-3-(2,3-dimethoxy-naphthalen-1-yl)-propenone (3)]
IC50 [1]: 12.5 µM | IC50 [2]: 12.2 µM | IC50 [3]: 12.7 µM

Structure (SMILES): COc1ccc2c(OC)ccc(/C=C/C(=O)c3cc4ccccc4o3)c2c1 [1-Benzofuran-2-yl-3-(4,7-dimethoxy-naphthalen-1-yl)-propenone (2)]
IC50 [1]: 15 µM | IC50 [2]: 19.1 µM | IC50 [3]: 27.8 µM

Structure (SMILES): COc1cc2ccccc2c(C2CC(c3ccc4c(c3)OCCO4)=NN2C(N)=S)c1OC (stereo unspecified) [3-(2,3-Dihydro-benzo[1,4]dioxin-6-yl)-5-(2,3-dimethoxy-naphthalen-1-yl)-4,5-dihydro-pyrazole-1-carbothioic acid amide (5a)]
IC50 [1]: 3.42 µM | IC50 [2]: 17.8 µM | IC50 [3]: 19.2 µM

Structure (SMILES): COc1cc2ccccc2c(C2CC(c3ccc4c(c3)OCCO4)=NN2C(=O)Nc2ccc(Cl)cc2)c1OC (stereo unspecified) [3-(2,3-Dihydro-benzo[1,4]dioxin-6-yl)-5-(2,3-dimethoxy-naphthalen-1-yl)-4,5-dihydropyrazole-1-carboxylic acid (4-chloro-phenyl)-amide (5b)]
IC50 [1]: 1.17 µM | IC50 [2]: 12.3 µM | IC50 [3]: 17.3 µM

Structure (SMILES): COc1ccc2c(OC)ccc(C3CC(c4ccc5c(c4)OCCO5)=NN3C(N)=S)c2c1 (stereo unspecified) [3-(2,3-Dihydro-benzo[1,4]dioxin-6-yl)-5-(4,7-dimethoxy-naphthalen-1-yl)-4,5-dihydro-pyrazole-1-carbothioic acid amide (6a)]
IC50 [1]: 2.82 µM | IC50 [2]: 12.6 µM | IC50 [3]: 7.12 µM

Structure (SMILES): COc1ccc2c(OC)ccc(C3CC(c4ccc5c(c4)OCCO5)=NN3C(=O)Nc3ccc(Cl)cc3)c2c1 (stereo unspecified) [3-(2,3-Dihydro-benzo[1,4]dioxin-6-yl)-5-(4,7-dimethoxy-naphthalen-1-yl)-4,5-dihydropyrazole-1-carboxylic acid (4-chloro-phenyl)-amide (6b)]
IC50 [1]: 0.94 µM | IC50 [2]: 12 µM | IC50 [3]: 5.12 µM

Structure (SMILES): CN(C)c1ccc(C2CC(c3ccc4c(c3)OCCO4)=NN2C(N)=S)c2ccccc12 (stereo unspecified) [3-(2,3-Dihydro-benzo[1,4]dioxin-6-yl)-5-(4-dimethylamino-naphthalen-1-yl)-4,5-dihydropyrazole-1-carbothioic acid amide (4a)]
IC50 [1]: 1.12 µM | IC50 [2]: 13.2 µM | IC50 [3]: 22.2 µM

Structure (SMILES): CN(C)c1ccc(C2CC(c3ccc4c(c3)OCCO4)=NN2C(=O)Nc2ccc(Cl)cc2)c2ccccc12 (stereo unspecified) [3-(2,3-Dihydro-benzo[1,4]dioxin-6-yl)-5-(4-dimethylamino-naphthalen-1-yl)-4,5-dihydropyrazole-1-carboxylic acid (4-chloro-phenyl)-amide (4b)]
IC50 [1]: 0.44 µM | IC50 [2]: 9.72 µM | IC50 [3]: 17.2 µM

Structure (SMILES): COc1cc2ccccc2c(C2CC(c3cc4ccccc4o3)=NN2C(N)=S)c1OC (stereo unspecified) [3-Benzofuran-2-yl-5-(2,3-dimethoxy-naphthalen-1-yl)-4,5-dihydro-pyrazole-1-carbothioic acid amide (3a)]
IC50 [1]: 8.06 µM | IC50 [2]: 10.3 µM | IC50 [3]: 9.17 µM

Structure (SMILES): COc1cc2ccccc2c(C2CC(c3cc4ccccc4o3)=NN2C(=O)Nc2ccc(Cl)cc2)c1OC (stereo unspecified) [3-Benzofuran-2-yl-5-(2,3-dimethoxy-naphthalen-1-yl)-4,5-dihydro-pyrazole-1-carboxylic acid(4-chloro-phenyl)-amide (3b)]
IC50 [1]: 0.99 µM | IC50 [2]: 5.02 µM | IC50 [3]: 8.46 µM

Structure (SMILES): COc1ccc2c(OC)ccc(C3CC(c4cc5ccccc5o4)=NN3C(N)=S)c2c1 (stereo unspecified) [3-Benzofuran-2-yl-5-(4,7-dimethoxy-naphthalen-1-yl)-4,5-dihydro-pyrazole-1-carbothioic acid amide (2a)]
IC50 [1]: 7.22 µM | IC50 [2]: 12.3 µM | IC50 [3]: 21.1 µM

Structure (SMILES): COc1ccc2c(OC)ccc(C3CC(c4cc5ccccc5o4)=NN3C(=O)Nc3ccc(Cl)cc3)c2c1 (stereo unspecified) [3-Benzofuran-2-yl-5-(4,7-dimethoxy-naphthalen-1-yl)-4,5-dihydro-pyrazole-1-carboxylic acid(4-chloro-phenyl)-amide (2b)]
IC50 [1]: 2.14 µM | IC50 [2]: 11.1 µM | IC50 [3]: 14.5 µM

Structure (SMILES): CN(C)c1ccc(C2CC(c3cc4ccccc4o3)=NN2C(N)=S)c2ccccc12 (stereo unspecified) [3-Benzofuran-2-yl-5-(4-dimethylamino-naphthalen-1-yl)-4,5-dihydro-pyrazole-1-carbothioic acid amide (1a)]
IC50 [1]: 4.53 µM | IC50 [2]: 14.5 µM | IC50 [3]: 35.4 µM

Structure (SMILES): CN(C)c1ccc(C2CC(c3cc4ccccc4o3)=NN2C(=O)Nc2ccc(Cl)cc2)c2ccccc12 (stereo unspecified) [3-Benzofuran-2-yl-5-(4-dimethylamino-naphthalen-1-yl)-4,5-dihydro-pyrazole-1-carboxylic acid(4-chloro-phenyl)-amide (1b)]
IC50 [1]: 1.87 µM | IC50 [2]: 9.1 µM | IC50 [3]: 22.2 µM

IC50 [3]: 0.62 µM
Structure (SMILES): C[C@@H]1C[C@H]2[C@@H]3CCC4=CC(=O)C=C[C@]4(C)[C@@]3(F)[C@@H](O)C[C@]2(C)[C@@]1(O)C(=O)CO [dexamethasone (tetramethyl-rhodamine conjugated )]
